From ChEMBL document CHEMBL1132501, “Synthesis and anti-Helicobacter pylori activity of FR182024, a new cephem derivative” (1999)

How the values were obtained:
[1] = The compound was tested against Penicillinase (TEM) and its stability towards beta-lactamase relative to cephaloridine was evaluated; format: functional
[2] = The compound was tested against penicillinase (TEM) and its stability towards beta-lactamase was evaluated
[3] = The compound was tested against penicillinase (TEM) and its stability towards beta-lactamase relative to cephaloridine was evaluated
[4] = system: Beta-lactamase (Bacteroides fragilis); assay: The compound was tested against Bacteroides fragilis FP784 its stability towards beta-lactamase relative to cephaloridine was evaluated

Vmax [1] | Vmax / Km [1] | Km [2] [µg/mL] | Vmax [3] | Vmax / Km [3] | Vmax / Km [4] | Compound
1 | 1 | – | – | – | – | O=C(Cc1cccs1)N[C@@H]1C(=O)N2C(C(=O)[O-])=C(C[n+]3ccccc3)CS[C@H]12
– | – | 47.4 | 3.61 | 6.33 | 1.98 | Cc1nnc(SC2=C(C(=O)O)N3C(=O)[C@@H](NC(=O)Cc4ccccc4)[C@H]3SC2)s1
